In US20200237742A1, “Serdexmethylphenidate Conjugates, Compositions And Methods Of Use Thereof” (priority 2018, published 2020):
Structures can show the parent of a compound that is named as a salt.

Legend:
[1] = tested on: healthy, nondependent, recreational stimulant users with intranasal insufflation experience; experiment: Intranasal abuse potential study, VAS pharmacodynamic assessments
Excerpt: “Ease of Insufflation” VAS is the measure that assesses the difficulty of snorting the study drugs. Subjects will respond to the statement “Snorting this drug was:” The question will be scored using a 0-100 points unipolar VAS anchored on the left with “Very Easy” (score of 0) and anchored on the right with “Very Difficult” (score of 100).
The study consisted of a Screening Period, an in-clinic Drug Discrimination Phase, a Treatment Phase, and a Follow-Up Visit.
Subjects who successfully completed the Screening Period returned to the clinic to complete the Drug Discrimination Phase. […] Subjects who successfully completed the Drug Discrimination Phase remained as inpatients to enter the Treatment Phase. The Drug Discrimination Phase was a double-blind, intranasal, single-dose, 2-treatment, 2-period, 2-sequence, randomized, crossover design.
All subjects were required to fast for at least 8 hours prior to each dose of study drug until approximately 4 hours after each dose. Abuse potential measures and pharmacokinetic samples were collected at different times after the administration of study drug. Subjects who successfully completed the Drug Discrimination Phase and who qualified for the Treatment Phase remained as inpatients to enter the Treatment Phase.
The placebo dose consisted of 80 mg of microcrystalline cellulose to create the same volume.
On dosing days in the Treatment Phase, blood samples were collected for the measurement of the plasma concentrations of SDX, d-methylphenidate (d-MPH), 1-methylphenidate (1-MPH) and ritalinic acid at predose and at 0.25, 0.5, 0.75, 1, 1.5, 2, 3, 4, 5, 6, 7, 8, 9, 10, 12, 16, 24, 36, and 48 hours ±5 minutes after each dose of study drug. […] All VAS pharmacodynamic assessments except Take Drug Again and Overall Drug Liking were performed at 0.25, 0.5, 0.75, 1, 1.5, 2, 3, 4, 5, 6, 7, 8, 10, 12, 24 hours ±5 minutes postdose. In addition, predose assessments of Feeling High, and Drowsiness/Alertness were collected. The Take Drug Again and Overall Drug Liking VAS assessments were performed at 12 and 24 hours ±5 minutes postdose. Ease of Nasal Insufflation scores were completed within 5 minutes after the completion of each intranasal drug administration during the Treatment Phase.

[2] = tested on: recreational stimulant abusers; experiment: Intravenous study, treatment-emergent adverse events; details: SDX Cl 30 mg (N = 31), d-MPH HCl 15 mg (N = 30)
Experimental: A study was conducted in humans to assess the intravenous abuse potential of serdexmethylphenidate relative to unconjugated d-methylphenidate and placebo in recreational stimulant abusers. This was a Phase 1, randomized, double-blind study in which serdexmethylphenidate and d-methylphenidate were administered intravenously in recreational stimulant users with a history of non-oral abuse. In Part A of the study, subjects (Cohort 1) participated in a dose-escalation phase to determine the optimal dose of intravenous d-methylphenidate based on tolerability and abuse-related pharmacodynamic assessments. […] The doses of serdexmethylphenidate and d-methylphenidate are equivalent with respect to molar amount of d-methylphenidate. FDA-recommended abuse potential measures and blood samples were collected at different times after dosing. Safety assessments were performed throughout the study.

[3] = tested on: recreational stimulant abusers; experiment: Intravenous abuse potential study, VAS pharmacodynamic assessments; assay type: in vivo, human
Excerpt: “Drug liking” score, used herein, is the score used to assess the degree that a human participant likes a drug effect at the time the question is being asked (that is, at the moment). It is scored using a 0 to 100 point bipolar visual analogue scale (VAS) anchored in the center with a neutral anchor of “neither like nor dislike” (score of 50), on the left with “strong disliking” (score of 0) and on the right with “strong liking” (score of 100).
“Euphoria” or “Feeling High” score, used herein, is the term to describe the score used to assess the degree that a human participant is high at the time the question is being asked (that is, at the moment). It is scored using a 0 to 100 point unipolar visual analogue scale (VAS) anchored on the left with “Not at All” (score of 0) and on the right with “Extremely” (score of 100).
“Take Drug Again” score, used herein, is the term to describe the score used to assess the degree that a human participant wants to take the drug again, if given the opportunity, based on his/her opinion now, i.e., at the time the question is being asked. It is scored using a 0 to 100 point unipolar visual analogue scale (VAS) anchored on the left with “Definitely Would Not” (score of 0) and on the right with “Definitely Would” (score of 100).
“Overall Drug Liking” score, used herein, is the term to describe the score used to assess the human subject's global perception of drug liking (i.e., the subjective effects over the whole course of the drug experience including any carryover effects). Subjects respond to the statement “Overall, my liking for this drug is.” The question is scored using a 0-100 point bipolar VAS anchored on the left with “Strong Disliking” (score of 0); “Neither Like nor Dislike” (score of 50) in the middle, and anchored on the right with “Strong Liking” (score of 100). This scale has the advantage of the human subject being relatively less affected or unaffected by acute study drug effects (if any) by the time of the assessment.
“Good Effects” score, used herein, is the term to describe the score used to assess the degree that a human participant is feeling good drug effects at the time the question is being asked (that is, at the moment). Subjects respond to the statement “At this moment, I can feel good drug effects.” It is scored using a 0 to 100 point unipolar visual analogue scale (VAS) anchored on the left with “Not at All” (score of 0) and on the right with “Extremely” (score of 100).
Safety assessments were performed throughout the study.

[4] = 12 hours, SDX Cl 80 mg, d-MPH HCl 40 mg
[5] = 24 hours, SDX Cl 80 mg, d-MPH HCl 40 mg
[6] = 12 hours, SDX Cl 30 mg vs placebo
[7] = 12 hours, SDX Cl 30 mg, d-MPH HCl 15 mg
[8] = 24 hours, SDX Cl 30 mg vs placebo
[9] = 24 hours, SDX Cl 30 mg, d-MPH HCl 15 mg
[10] = 12 hours, d-MPH HCl 15 mg vs SDX Cl 30 mg
[11] = 24 hours, d-MPH HCl 15 mg vs SDX Cl 30 mg
[12] = Emax, d-MPH HCl 15 mg vs SDX Cl 30 mg
[13] = d-MPH HCl 15 mg vs SDX Cl 30 mg

Compound: COC(=O)[C@H](c1ccccc1)[C@H]1CCCCN1C(=O)OC[n+]1cccc(C(=O)N[C@@H](CO)C(=O)O)c1.[Cl-] [serdexmethylphenidate chloride]
- Median Overall Drug Liking [1, 4]: 58
- Median Take Drug Again [1, 4]: 51
- Mean Overall Drug Liking [1, 5]: 59.0
- Median Overall Drug Liking [1, 5]: 55
- Median Take Drug Again [1, 5]: 50
- TEAE: Change in sustained attention [2]: 0 (0.0) n (%)
- TEAE: Dry mouth [2]: 0 (0.0) n (%)
- TEAE: Energy increased [2]: 2 (6.5) n (%)
- TEAE: Euphoric mood [2]: 4 (12.9) n (%)
- TEAE: Feeling abnormal [2]: 1 (3.2) n (%)
- TEAE: Feeling hot [2]: 2 (6.5) n (%)
- TEAE: Feeling jittery [2]: 0 (0.0) n (%)
- TEAE: Feeling of relaxation [2]: 0 (0.0) n (%)
- TEAE: Headache [2]: 1 (3.2) n (%)
- TEAE: Heart rate increased [2]: 0 (0.0) n (%)
- TEAE: Hyperhidrosis (sweaty hands) [2]: 1 (3.2) n (%)
- TEAE: Hypervigilance [2]: 4 (12.9) n (%)
- TEAE: Nausea [2]: 0 (0.0) n (%)
- TEAE: Palpitations [2]: 0 (0.0) n (%)
- TEAE: Paraesthesia (tingling) [2]: 0 (0.0) n (%)
- TEAE: Sinus tachycardia [2]: 0 (0.0) n (%)
- TEAE: Somnolence [2]: 1 (3.2) n (%)
- TEAE: Tachycardia [2]: 0 (0.0) n (%)
- Mean Difference Take Drug Again, A vs C [3, 6]: 9.1
- Overall Drug Liking, Mean difference A vs C [3, 6]: 2.8
- Median Overall Drug Liking [3, 7]: 50.0
- Median Take Drug Again [3, 7]: 0.0
- Mean Difference Take Drug Again, A vs C [3, 8]: 1.4
- Overall Drug Liking, Mean difference A vs C [3, 8]: 1.2
- Median Overall Drug Liking [3, 9]: 50.0
- Median Take Drug Again [3, 9]: 0.0
- Mean Difference Take Drug Again, A vs C ([3]; Emax, SDX Cl 30 mg vs placebo): 6.0
- Overall Drug Liking, Mean difference A vs C ([3]; Emax, SDX Cl 30 mg vs placebo): 1.4
- Feeling High Emax, Mean difference A vs C ([3]; SDX Cl 30 mg vs placebo): 3.4
- Good Effects Emax, Mean difference A vs C ([3]; SDX Cl 30 mg vs placebo): 2.2
- Median Difference Drug Liking Emax, A vs C ([3]; SDX Cl 30 mg vs placebo, bipolar VAS): 0.5

Compound: COC(=O)[C@H](c1ccccc1)[C@H]1CCCCN1 [d-methylphenidate hydrochloride, d-threo-methylphenidate hydrochloride]
- Median Overall Drug Liking [1, 4]: 87
- Median Take Drug Again [1, 4]: 91
- Median Overall Drug Liking [1, 5]: 82
- Median Take Drug Again [1, 5]: 94
- Mean Difference Overall Drug Liking, B vs A ([1]; 24 hours, d-MPH HCl 40 mg vs SDX Cl 80 mg): statistically higher
- TEAE: Change in sustained attention [2]: 2 (6.7) n (%)
- TEAE: Dry mouth [2]: 6 (20.0) n (%)
- TEAE: Energy increased [2]: 1 (3.3) n (%)
- TEAE: Euphoric mood [2]: 17 (56.7) n (%)
- TEAE: Feeling abnormal [2]: 2 (6.7) n (%)
- TEAE: Feeling hot [2]: 6 (20.0) n (%)
- TEAE: Feeling jittery [2]: 2 (6.7) n (%)
- TEAE: Feeling of relaxation [2]: 1 (3.3) n (%)
- TEAE: Headache [2]: 1 (3.3) n (%)
- TEAE: Heart rate increased [2]: 5 (16.7) n (%)
- TEAE: Hyperhidrosis (sweaty hands) [2]: 4 (13.3) n (%)
- TEAE: Hypervigilance [2]: 10 (33.3) n (%)
- TEAE: Nausea [2]: 3 (10.0) n (%)
- TEAE: Palpitations [2]: 2 (6.7) n (%)
- TEAE: Paraesthesia (tingling) [2]: 2 (6.7) n (%)
- TEAE: Sinus tachycardia [2]: 4 (13.3) n (%)
- TEAE: Somnolence [2]: 4 (13.3) n (%)
- TEAE: Tachycardia [2]: 4 (13.3) n (%)
- Mean Overall Drug Liking [3, 7]: 68.0
- Median Overall Drug Liking [3, 7]: 73.0
- Mean Difference Take Drug Again, B vs A [3, 10]: 43.3
- Overall Drug Liking, Median difference B vs A [3, 10]: 16.0
- Mean Difference Take Drug Again, B vs A [3, 11]: 39.2
- Overall Drug Liking, Median difference B vs A [3, 11]: 13.5
- Mean Difference Take Drug Again, B vs A [3, 12]: 43.1
- Overall Drug Liking, Median difference B vs A [3, 12]: 18.0
- Feeling High Emax, Median difference B vs A [3, 13]: 67.0
- Good Effects Emax, Median difference B vs A [3, 13]: 73.0
- Median Difference Drug Liking Emax, B vs A ([3]; d-MPH HCl 15 mg vs SDX Cl 30 mg, bipolar VAS): 29.0
